What was measured:
mice = assay: Gross motor behavior and locomotor activity after acute dosing; format: in vivo
[1] = tested on: dopamine/norepinephrine ratio; assay: Dose response of tissue dopamine/norepinephrine ratio 6 hours after a single oral dose; format: in vivo, SHR

SMILES: Cl.NCc1c[nH]c(=S)n1[C@H]1CCc2c(F)cc(F)cc2C1 [nepicastat, (S)-5-Aminomethyl-1-(5,7-difluoro-1,2,3,4-tetrahydronaphth-2-yl)-2,3-dihydro-2-thioxo-1H-imidazole hydrochloride]
- gross motor behavior (mice; 1.0-30 mg/kg p.o., acute): no significant effects on gross motor behavior
- locomotor activity (mice; 10-100 mg/kg i.p.): did not effect locomotor activity
- dose with significant change in dopamine/norepinephrine ratio, cerebral cortex [1]: 10 mg/kg
- dose with significant change in dopamine/norepinephrine ratio, left ventricle [1]: 3.0 mg/kg
- dose with significant change in dopamine/norepinephrine ratio, mesenteric artery [1]: 0.3 mg/kg
